Entries after “also recorded” stand apart in the source; their conditions may differ. Like-named read-outs stand apart in the source and are kept apart here.
Tests used:
[1] = test system: hrtAB promoter (HssRS activation; CgoX activation); assay: XylE colorimetric reporter assay (phrt.xylE), activation of HssRS / hrtAB expression; assay type: cell-based, Staphylococcus aureus strain Newman; settings: for XylE activity in comparison to '8882 at 10 μM: six-hour exposure (FIG. 2A); for Specifc Activity (nMol/min*mg), data collected at 10 uM: footnote a: data collected at 10 uM
Method: (§1) To maximize the production of coproporphyrin III and thereby increase blue-light mediated killing of S. aureus, synthesized analogs of VU0038882 were tested. To determine the relative efficacy of each analog, a Newman strain of S. aureus, transformed with the phrt.xylE (11) reporter vector was used. This reporter allows for colorimetric assessment of intracellular heme production. To perform the assay, each individual analog was added to 3 mL of TSB+10 μg/mL chloramphenicol to reach a concentration of 30 μM, and then 700 μL of this newly made 30 μM solution was added to 1.3 mL of remaining TSB+10 μg/mL chloramphenicol media to create the 10 μM concentration. Either 10 μM or 30 μM concentrations of compounds in medium were then aliquoted into three 0.5 mL replicate tubes. Three separate 16- to 18-hour overnight subcultures from isolated colonies were back-diluted 1:100 into the tubes creating three biological replicates and were subcultured for 6 hours at 37° C. and 180 rpm. After incubation, the cells were pelleted at 16,400 g for 5 minutes and the supernatant aspirated before washing with 0.5 mL of 20 mM potassium phosphate wash buffer. After pelleting the cells again at 16,400 g for 5 minutes the wash buffer was aspirated, and the pellets were stored at −80° C. until further use.
When the cells were ready to be lysed and data collected, samples were removed from the −80° C. freezer, allowed to thaw, and resuspended in 150 μL of lysis buffer (100 mM potassium phosphate pH=8.0, 10% v/v acetone, 20 μg/mL lysostaphin) before incubation in a 37° C. bead bath for 20 minutes and then cooled for 5 minutes on ice. The samples were then centrifuged at 16,400 g and 4° C. for 30 minutes to separate the pellet from the lysate, which was then placed into a 96-well microtiter plate and kept on ice. The lysate from each sample was pipetted into 20 μL aliquots on a round-bottom or flat-bottom 96-well plate on ice. The round bottom plate was labeled for bicinchoninic acid assay (BCA) protein content analysis, and 10 μL of BCA standards was added to extra wells on the plate. Protein quantification was performed using a Pierce BCA Protein Assay Kit as per the manufacturer's instructions. While the BCA plate was in the incubator, the flat-bottom plate was prepared by thawing 1 M catechol on ice and making 100 mM potassium phosphate (pH=8.0) assay buffer. After preparing a kinetic read at 375 nm for 10 minutes with a minimal interval between reads, the catechol was diluted 1:1,000 into the assay buffer and quickly dispensed into a sterile basin, then 200 μL of the solution was pipetted into each well using a multichannel pipette. All data were exported into Excel software (Microsoft) and analyzed for specific activity of each compound and activity relative to VU0038882 controls.
After 219 analogs had been screened, the compounds with the best percent VU0038882 activity were tested again following the same protocol, but with twelve replicates per concentration with data expressed as averages ±the standard deviation (SD). Additionally, the top-performing compounds were tested using the XylE protocol with a concentration gradient to determine their half maximal effective concentration (EC50) values.
Photosensitizer-conjugated antibodies expose bacteria to reactive oxygen species (ROS) externally, but this treatment can be paired with small molecule treatment to generate ROS internally via heme biosynthesis pathway intermediates. To discover new compounds capable of activating CgoX and/or displaying less toxicity to eukaryotic cells, a medicinal chemistry campaign was initatied based on systematic alternation of the '8882 structure. Each new analog was tested for the ability to activate HssRS using the previously described XylE colorimetric assay that employs a reporter construct in which the hrtAB promoter is fused to a xylE reporter gene. […]

[2] = test system: S. aureus; assay: Toxicity of analogs to bacteria in the XylE cultures; assay type: cell-based, Staphylococcus aureus; settings: target dose of 30 μM
Method: as §1
The most consistent activity with non-furan-containing compounds was found with thiophene replacements.

[3] = test system: S. aureus strain Newman wild-type (iron-starved); assay: In vitro antimicrobial photodynamic therapy light killing assay; assay type: cell-based, Staphylococcus aureus; settings: for Growth inhibition / reduction of CFUs/mL by small molecule plus IR700DX-conjugated anti-IsdA and anti-IsdB mAb mixture: combination with mAb mixture, 63 J/cm^2 690 nm and 50 J/cm^2 395 nm light (FIG. 3A)
Method: Iron-chelated bacterial cultures of the indicated strains were prepared. Antibodies of interest were added to 5 mL of iron-chelated TSB at a concentration of 2.5 ug/mL for subculture. These conditions were then separated into four-1 mL aliquots, which was comprised of replicates for both the experimental and control strains. The iron-depleted bacterial strains Newman wildtype and Newman ΔisdABΔspa (40) were then normalized to an OD600 of 1.0 and back diluted 1:100 into each condition from the overnight cultures. These subcultures were then incubated at 37° C. and 180 rpm for 30 minutes, and the bacteria were pelleted via centrifugation for 5 minutes at 16,400 g and 4° C. The pellet was washed twice in 1 mL of cold PBS before being finally resuspended in 1 mL of cold PBS.
During the subculture incubation, a measurement was taken of the power of each light to calculate the time needed to achieve a light dose of 63 J/cm^2 for the 690 nm NIR light (M680L4; Thorlabs) and 50 J/cm^2 for the 395 nm blue-LED (M395L4; Thorlabs) mounted 5 cm above the measurement probe. This measurement was taken using a photodiode and power meter (919P-003-10, 843-R; Newport) with a cutout 3×3 portion of a black 384-well microtiter plate positioned centrally over the measurement probe. The outer wells were covered with aluminum foil to ensure that the measurement taken by the probe was strictly limited to the light that entered the 0.1225 cm^2 area of the well. This approach allowed for the irradiance of the light to be calculated according to (readout (mW)/0.1225 cm^2). This value was then divided into the total light dose for each light and divided by 60 to determine the light dose in minutes. The outputs of the 690 nm and 395 nm LEDs were spatially combined using a long-pass dichroic filter (FF470-Dio; Semrock Inc.) for all experimental conditions where light was present.
The spatial intensity profile of the light output is approximately Gaussian in shape in both directions, so 25 μL of each sample was aliquoted into a 3×3 square on a black 384-well microtiter plate with the center well remaining empty, since it would receive a stronger dose than the surrounding wells. The samples were organized such that the conditions alternated wild-type and knockout in a clockwise fashion, beginning with the lower left corner well. In addition, the center well was centered under the light to equate the radial diminishment of light dose amongst the samples.
To ensure the compounds' efficacy in the full therapeutic regimen and reduce potential unknown variables, each of the compounds was tested with 395 nm or 690 nm wavelengths and with Newman WT or Newman ΔisdAB Δspa. […]

[4] = test system: S. aureus USA300 luxBADCE; assay: In vivo murine superficial skin (ear) infection model with PDT, bioluminescence imaging; parameters: species or system BALB/cJ mice; settings: for Bacterial growth / luminescence in infected mouse ear compared to untreated animals: '8882 plus conjugated antibodies (i.p. and topical) plus 690 nm and 395 nm light, two-day regimen
Method: All mice were maintained in compliance with Vanderbilt's Institutional Animal Care and Use Committee regulations (protocol M1800026). To create a superficial skin wound a similar model of infection was used, as previously described (44), with modifications to relocate the area of infection to the inner epithelial layer of each ear. Eight- to 10-week-old female BALB/cJ mice were used for the S. aureus infections. Twenty-four hours prior to infection the mice were injected intraperitoneally with 20 μg/mL of both STAU-149 (anti-IsdA) and STAU-281 (anti-IsdB) in PBS. Overnight cultures of S. aureus USA300 with a chromosomally-integrated luxBADCE cassette (45) were subcultured 1:50 into TSB containing 1 mM 2,2-dipyridyl. Cultures were grown for 3.5 h to reach exponential phase of growth. Cell pellets were washed twice with ice-cold PBS with the original culture volume, centrifuged, and resuspended in 250 μL of ice-cold PBS. Approximately 5×10^7 log-phase CFUs were inoculated in 5 μL of PBS directly onto the surface of the wound present on each ear, and each mouse was again injected intraperitoneally with antibodies. Mice were placed into new sterile cages in groups of three in accordance with their experimental condition. Four hours post-infection, the mice were visualized using the IVIS spectrum (Perkin Elmer) in vivo bioluminescence imaging system, with data being collected with a 5-minute exposure time. Each mouse was then transferred to a nose cone under continuous isoflurane anesthesia and, 30 minutes prior to light exposure, the ears were exposed to 10 ∥L of the 450 ∥M '8882 and 20 μg/mL mAb cocktail in PBS containing 10% DMSO. Control mice were left untreated. The right ventrodorsal ear of each mouse was exposed to the 395-nm LED for 20.6-23.1 minutes delivering a total energy dose of 50 J/cm^2. […]
The left ventrodorsal ear of each mouse was not exposed to light during treatment. […] Luminescence was quantified for individual ears using ImageJ (FIJI) (46-48). […] Post-treatment images were again collected at 5-minute exposure times using the IVIS system and analyzed using ImageJ (FIJI). […]

[5] = Staphylococcus aureus, NEWMAN, read-out: logEC50 (converted)

Compound	XylE activity in comparison to '8882 at 10 μM [1]	logEC50 ([1]; XylE protocol with a concentration gradient, Newman phrt.xylE)	EC50 ([1]; XylE protocol with a concentration gradient, Newman phrt.xylE, read-out: EC50) [µM]	Specifc Activity (nMol/min*mg), data collected at 10 uM ([1]; 6 h subculture)	Toxicity to bacteria (S. aureus) [2]	Decrease of S. aureus viability compared with untreated cells, combined treatment ([3]; '8882 plus IR700DX-conjugated IsdA and IsdB antibodies plus 690 nm and 395 nm light)	Efficacy against S. aureus in PDT, small molecule alone ([3]; alone, with light)	Growth inhibition / reduction of CFUs/mL by small molecule plus IR700DX-conjugated anti-IsdA and anti-IsdB mAb mixture [3]	Growth inhibition / reduction of CFUs/mL by small molecule plus IR700DX-conjugated anti-IsdA and anti-IsdB mAb mixture ([3]; listed as VU0038882)	Bacterial growth / luminescence in infected mouse ear compared to untreated animals [4]	Bacterial growth / luminescence in infected mouse ear compared to untreated animals ([4]; listed as VU00038882)	Bacterial burden in infected mouse ear, antibodies plus '8882 without light ([4]; no light exposure)	Specifc Activity @ 30 μM ([1]; 30 μM compound, 6 h subculture, XylE activity normalized to protein) [nmol/min/mg]	EC50 ([1]; Staphylococcus aureus, NEWMAN) [µM]	EC50 [1, 5] [µM]
2-(5-(5-(Hydroxymethyl)thiophen-2-yl)-1H-pyrazol-3-yl)naphthalen-1-ol [′9952]	highest activity at 10 μM observed to date	−5.182 ± 0.065	6.58	18.10 ± 1.80^a nMol/min*mg	overtly toxic to bacteria; also recorded: exhibiting toxicity to S. aureus	–	–	–	–	–	–	–	–	–	–
Oc1c(-c2cc(-c3ccco3)[nH]n2)ccc2ccccc12 [′8882, 2-(5-(Furan-2-yl)-1H-pyrazol-3-yl)naphthalen-1-ol]	–	–	–	–	–	10,000 fold	efficacious against S. aureus	significant growth inhibition of S. aureus	greater reduction of CFUs/mL in vitro than either condition alone	significantly less bacterial growth	significant reduction in bacterial luminescence	a reduction in bacterial burden but did not reach the same extent as the combinatorial treatment	30.04 ± 10.24	10.5	10.5
Oc1c(-c2cc(-c3ccoc3)[nH]n2)ccc2ccccc12 [′9133, 2-(5-(Furan-3-yl)-1H-pyrazol-3-yl)naphthalen-1-ol]	outperformed '8882	–	–	8.346 ± 1.304^a nMol/min*mg	overtly toxic to bacteria; also recorded: exhibiting toxicity to S. aureus	–	–	–	–	–	–	–	–	8.17	8.17
